The record followed here is ChEMBL document CHEMBL4808240, “Design, synthesis and analysis of novel sphingosine kinase-1 inhibitors to improve oral bioavailability” (Bioorg Med Chem Lett, 2021).

Molecules are shown by their SMILES. A value given as a limit tells only on which side of the number the result lay.

As usually defined, the IC50 is the concentration at which inhibition is half-maximal.

The target in the assay is Sphingosine kinase 1 (Homo sapiens, UniProt Q9NYA1). In words: Inhibition of recombinant full length GST-tagged human SPHK1 expressed in baculovirus expression system incubated for 1 hr in presence of ATP by Alexa Fluor 647 tracer based Adapta assay.
Sphingosine kinase 1, sequence (Q9NYA1 whole entry): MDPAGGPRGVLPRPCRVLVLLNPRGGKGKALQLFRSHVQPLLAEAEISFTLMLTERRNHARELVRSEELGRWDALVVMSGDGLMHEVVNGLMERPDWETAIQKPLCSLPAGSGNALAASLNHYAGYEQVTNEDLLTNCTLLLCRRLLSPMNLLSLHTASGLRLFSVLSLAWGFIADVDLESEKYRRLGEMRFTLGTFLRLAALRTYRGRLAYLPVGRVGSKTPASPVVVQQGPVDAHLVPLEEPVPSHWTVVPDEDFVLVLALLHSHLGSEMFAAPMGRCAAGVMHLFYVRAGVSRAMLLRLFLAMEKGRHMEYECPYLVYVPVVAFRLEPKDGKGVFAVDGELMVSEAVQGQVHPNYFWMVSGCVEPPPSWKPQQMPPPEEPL

Regarding `O=C(N/N=C/c1ccccc1)c1cc(-c2ccc3ccccc3c2)[nH]n1`, the half-inhibitory concentration (IC50) was over 10 µM.
As to `COc1ccc(/C=N/NC(=O)c2cc(-c3ccc4ccccc4c3)[nH]n2)cc1OC`, the 50% inhibitory concentration (IC50) was 6.55 µM.
Take `COc1ccc2ccccc2c1/C=N/NC(=O)c1cc(-c2ccc3ccccc3c2)[nH]n1`: the half-inhibitory concentration (IC50) is over 10 µM.
As for `O=C(N/N=C/c1cccc([N+](=O)[O-])c1)c1cc(-c2ccc3ccccc3c2)[nH]n1`, the IC50 is over 10 µM.
Take `O=C(N/N=C/c1cccc2ccccc12)c1cc(-c2ccc3ccccc3c2)[nH]n1`: the half-maximal inhibitory concentration (IC50) was over 10 µM.
Under `O=C(N/N=C/C1CCCCC1)c1cc(-c2ccc3ccccc3c2)[nH]n1` stands over 10 µM; under `O=C(N/N=C/c1cccnc1)c1cc(-c2ccc3ccccc3c2)[nH]n1`, over 10 µM; under `O=C(N/N=C/c1ccc2c(c1)OCCO2)c1cc(-c2ccc3ccccc3c2)[nH]n1`, over 10 µM.
Regarding `COc1ccccc1/C=N/NC(=O)c1cc(-c2ccc3ccccc3c2)[nH]n1`, the IC50 is over 10 µM.
With `O=C(N/N=C/c1c(O)ccc2ccccc12)c1cc(-c2ccc3ccccc3c2)n[nH]1`, the IC50 was over 10 µM.
Under `O=C(N/N=C/c1ccccc1O)c1cc(-c2ccc3ccccc3c2)n[nH]1` stands over 10 µM.
For `O=C(N/N=C/c1ccc(Cl)cc1)c1cc(-c2ccc3ccccc3c2)[nH]n1` the value was over 10 µM.
Turning to `COc1cccc(/C=N/NC(=O)c2cc(-c3ccc4ccccc4c3)[nH]n2)c1`, the IC50 is over 10 µM.
For `COc1ccc(/C=N/NC(=O)c2cc(-c3ccc4ccccc4c3)[nH]n2)cc1` the value was over 10 µM.
Consider `O=C(N/N=C/c1ccc(O)cc1)c1cc(-c2ccc3ccccc3c2)n[nH]1`, for which the IC50 was over 10 µM.
For the molecule `O=C(N/N=C/c1cccc(O)c1)c1cc(-c2ccc3ccccc3c2)n[nH]1`, the IC50 is over 10 µM.
